Patent US9816227B2, “Textile products with herbal composition to render the fabrics insects repellent” (priority 2013, dated 2017)

How the values were obtained:
[1] = exposed to light and water; cited from earlier work
[2] = test system: desert locust (Schistocerca gregaria); details: in vivo; cited from earlier work
[3] = test system: insects (larvae, pupae, adults); test: Exposure of insect larvae: inhibition of development to pupae and adults; format: in vivo
From the text: The possible effect of azadirachtin and other bioflavonoids including azadiradione, fraxinellone, nimbin, salannin, salannol, vepinin and vilasinin, the active components of the Neem seed oil extract, are inhibiting molting in larvae to pupae and adults of the most of the insects. Apart from delayed lethal action, effects on the pupation, adult emergence, and size of pupae or adults have been also observed. […] The compounds are characterized by their inhibition or prevention of formation of adult morphology. The effects on pupae (based on proportion of undeveloped individuals) and adults (based on incomplete development, attachment to puparia, or inability to fly) are dose-dependent.
No adults of insects are obtained at doses of 1.10, 10 and 100 μg/ml. These concentrations cause about 100% mortality of larvae or developed pupae. […] The treatments with 0.00001 and 0.001 μg/ml would result in an insignificant increase (0.8-1.6%) in the female wing length/width.

Structure (SMILES): C/C=C(\C)C(=O)O[C@H]1C[C@@H](OC(C)=O)[C@@]2(C(=O)OC)CO[C@H]3[C@@H](O)[C@@](C)([C@]45O[C@@]4(C)[C@H]4C[C@@H]5O[C@@H]5OC=C[C@@]54O)[C@H]4[C@]1(CO[C@]4(O)C(=O)OC)[C@@H]32 [azadirachtin, dimethyl (2aR,3S,4S,R,S,7aS,8S,10R,10aS,10bR)-10-(acetyloxy)-3,5-dihydroxy-4-[(1S,2S,6S,8S,9R,11S)-2-hydroxy-11-methyl-5,7,10-trioxatetracyclo[6.3.1.02,6.09,11]dodec-3-en-9-yl]-4-methyl-8-{[(2E)-2-methylbut-2-enoyl]oxy}octahydro-1H-furo[3′,4′:4,4a]naphtho[1,8-bc]furan-5,10a(8H)-dicarboxylate]
- degradation time [1]: ≤ 100 h
- feeding inhibitor activity [2]: active
- increase in the female wing length/width ([3]; 0.00001 and 0.001 μg/ml, insignificant): 0.8-1.6%
- effect on wing dimensions of females ([3]; 0.001, 0.01 and 0.1 μg/ml): do not significantly affect
- pupal weights and dimensions, adult weights, wing dimensions, or interocular distances ([3]; treatment of larvae with 0.00001 to 0.1 μg/ml): significant reductions
